Test results from US20180037923A1, “SELECTIVE DETECTION OF LACTIC ACID AND/OR ACETIC ACID BACTERIA OR OF FUNGI” (priority 2015, published 2018).

Key:
[1] = test system: Sacch. Cerevisae Saflager S23; assay: Agar plate count after contact with antifungal; type: cell-based, Saccharomyces cerevisae; conditions: 400 mg/L; count at contact time 0 h 9.10^4 CFU/mL
Text: (§1) The word “bactericide” refers to a treatment having the effect of reducing a bacterial population by at least three decimal logarithms of colony forming units/ml on an agar plate count of a sample after treatment.
(§2) The toxicity results on yeasts and on bacteria are presented in the table below displaying the duration of exposure of the fungal flora to molecule A1 and the associated fluorescence measurement: yeasts lysis after exposure to the antifungal was confirmed by microscopic examination and methylene blue staining.
(§3) The words “contact time” refer to below, the time of exposure of the microorganisms to the fungicidal product, here molecule A1.
(§4) Below: “No CFU” is the abbreviation for “No Colony forming unit on agar plate count”.
(§5) The toxicity results on yeasts and on bacteria are presented in the table below displaying the duration of exposure of the fungal flora to the molecule A2 and are obtained by enumeration on MRS agar media.

Sacch. Diastaticus IFBM = assay: Agar plate count after contact with antifungal; type: cell-based, Saccharomyces diastaticus; conditions: 400 mg/L; count at contact time 0 h 2.10^5 CFU/mL
Text: as §1, §2, §3, §4, §5

[2] = test system: lactic acid bacteria and acetic acid bacteria; assay: Bactericidal action on the bacterial flora (conclusion from agar plate counts); type: cell-based; conditions: bactericide = reduction by at least three decimal logarithms of CFU/ml
Text: as §1, §2, §5

For `C[C@@H]1[C@H](O)[C@@H](C)/C=C/C=C/C=C/C=C/C=C/C=C/C=C/[C@H](O[C@@H]2O[C@H](C)[C@@H](O)[C@H](N)[C@@H]2O)C[C@@H]2O[C@](O)(C[C@@H](O)C[C@@H](O)[C@H](O)CC[C@@H](O)C[C@@H](O)CC(=O)O[C@H]1C)C[C@H](O)[C@H]2C(=O)O` [Molecule A1, Amphotericin B], the “Agar plate count contact time 4 h” value [1] was “No CFU”, the “Agar plate count contact time 4 h” value (Sacch. Diastaticus IFBM) was “No CFU” and the “Bactericidal action on lactic acid and acetic acid flora” value ([2]; doses of 200 mg/liter) was “non-bactericidal for lactic acid bacteria and acetic acid bacteria”. For the same molecule, the “Bactericidal action on lactic acid and acetic acid flora” value ([2]; doses of 400 mg/liter) was “non-bactericidal”.
